Measured values: patent US20240166643A1, “IMIDAZO[1,2-A]PYRIDINE COMPOUNDS AND THEIR USE IN THERAPY” (Imperial College Innovations Limited, priority 2020, published 2024)

Columns and labels:
[1] = molecular target: Plasmodium vivax (Pv) NMT (Plasmodium vivax (strain Salvador I), UniProt A5K1A2); experiment: biochemical
[2] = system: Plasmodium falciparum 3D7; experiment: SYBR Green assay, Plasmodium falciparum strain 3D7; type: cell-based; details: P. falciparum strain 3D7, 96 h incubation, read-out: Pf EC50 strain 3D7
Human NMT1 (HsNMT1) = Human NMT1 (HsNMT1) (Homo sapiens, UniProt P30419); experiment: biochemical
Chain of Human NMT1 (HsNMT1) (P30419 whole entry, looked up): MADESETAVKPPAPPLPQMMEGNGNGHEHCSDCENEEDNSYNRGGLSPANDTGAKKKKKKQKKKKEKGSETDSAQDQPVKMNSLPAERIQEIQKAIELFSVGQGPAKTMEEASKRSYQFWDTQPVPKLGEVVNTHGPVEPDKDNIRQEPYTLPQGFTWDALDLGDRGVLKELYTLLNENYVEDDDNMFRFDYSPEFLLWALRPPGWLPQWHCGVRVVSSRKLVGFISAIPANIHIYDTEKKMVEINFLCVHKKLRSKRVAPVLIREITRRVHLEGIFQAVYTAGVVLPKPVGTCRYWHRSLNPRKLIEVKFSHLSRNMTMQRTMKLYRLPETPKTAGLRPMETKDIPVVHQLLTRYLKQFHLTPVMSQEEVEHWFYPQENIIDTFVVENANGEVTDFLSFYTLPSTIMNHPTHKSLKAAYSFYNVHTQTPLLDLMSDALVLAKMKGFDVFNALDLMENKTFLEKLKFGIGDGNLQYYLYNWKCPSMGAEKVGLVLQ

SU-DHL-10 cells = experiment: Cell cytotoxicity in SU-DHL-10 cell line (CellTiter-Glo); type: cell-based; details: Homo sapiens, SU-DHL10; CellTiter-Glo, 48 h; read-out: SU-DHL-10 EC50
Experimental: Assay (c): Cell Cytotoxicity in SU-DHL-10 Cell Line
Cell Culture: SU-DHL-10 (ATCC CRL-2963) were cultured in RPMI-media (ATCC, 30-2001).
Cultures were maintained by the addition of fresh medium and inoculum of 8.0×10^4 to 2.0×10^5 cells/mL. Subculturing was done when the cell density was between 1.0×10^6 and 2.0×10^6 cells/mL.
Cell seeding: 5000 cells/well were plated in 384-white clear bottom plates (Greiner, 781098) for the assay in 20 μl growth media.
Top dose: 1 mM stocks of each compound was prepared in 100% DMSO and thereafter diluted 333.33 fold in growth media to obtain 3 μM (0.3% DMSO) mid stock of each compound, from which 10 μl was added to assay wells (with 20 μl cells) for a final concentration of 1 μM (0.1% DMSO). For subsequent dose-response: 1 mM stock was diluted 3 fold in DMSO before subjecting to above dilution pattern to obtain final 0.1% DMSO concentration.
Treatment: Cells were incubated with the compounds for 48 h at 37° C. in presence of 5% CO2.
Assay Procedure: The assay plate and its contents were equilibrated at room temperature for approximately 30 minutes. CellTiter-Glo® Reagent was added equal to the volume (1;1) of cell culture medium present in each well. The contents were mixed for 5 minutes on an orbital shaker to induce cell lysis. The plate was allowed to incubate at room temperature for 10 minutes to stabilize luminescent signal. The luminescence was recorded with an integration time of 0.25 seconds in EnVision 2104 Multilabel Plate Reader (Perkin Elmer).
Calculation: % Cytotoxicity was calculated considering 100% cell death in wells treated with 0.1% TritonX.

Chain of Plasmodium vivax (Pv) NMT (A5K1A2 1-410): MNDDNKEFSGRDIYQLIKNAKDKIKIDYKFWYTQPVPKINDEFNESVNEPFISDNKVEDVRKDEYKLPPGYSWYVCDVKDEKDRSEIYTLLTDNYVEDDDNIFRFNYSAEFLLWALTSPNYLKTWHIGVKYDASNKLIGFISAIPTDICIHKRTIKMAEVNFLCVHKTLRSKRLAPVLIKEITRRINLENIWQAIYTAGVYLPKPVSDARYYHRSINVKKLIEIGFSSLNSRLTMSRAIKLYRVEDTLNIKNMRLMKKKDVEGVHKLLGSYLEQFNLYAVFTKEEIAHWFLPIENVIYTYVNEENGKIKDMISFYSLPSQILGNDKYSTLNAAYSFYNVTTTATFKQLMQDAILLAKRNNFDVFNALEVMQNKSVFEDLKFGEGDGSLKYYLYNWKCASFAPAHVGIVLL

With `O=C(NCc1cnc2ccccn12)C1CN(c2nc(N3CCCNCC3)ncc2Cl)C1` [Example 5] the IC50 [1] was 14 nM and the EC50 [2] was 2500 nM.
For `O=C(NCc1cnc2cc(F)ccn12)C1CN(c2nc(N3CCCNCC3)ncc2Cl)C1` [Example 21], the IC50 [1] was 17 nM, the IC50 (Human NMT1 (HsNMT1)) was 50 nM and the EC50 [2] was 800 nM.
`CC1CN(c2ncc(Cl)c(N3CC(C(=O)NCc4cnc5ccccn45)C3)n2)CCN1` (centres unmarked) [Example 29] gave an IC50 [1] of 18 nM, an IC50 (Human NMT1 (HsNMT1)) of 79 nM and an EC50 [2] of 620 nM.
`CC(NC(=O)C1CN(c2nc(N3CCNCC3)ncc2Cl)C1)c1cnc2ccccn12` (centres unmarked) [Example 30] showed an IC50 [1] of 8.5 nM, an IC50 (Human NMT1 (HsNMT1)) of 26 nM and an EC50 [2] of 960 nM.
`CC(C)(NC(=O)C1CN(c2nc(N3CCNCC3)ncc2F)C1)c1cnc2ccccn12` [Example 32] gave an IC50 [1] of 9.1 nM and an EC50 [2] of 64 nM.
Compound `COc1cnc(N2CCNCC2)nc1N1CC(C(=O)NC(C)(C)c2cnc3ccccn23)C1` [Example 34] has an IC50 [1] of 9.1 nM and an EC50 [2] of 140 nM.
For `C[C@H]1CN(c2ncc(Cl)c(N3CC(C(=O)NC(C)(C)c4cnc5ccccn45)C3)n2)CCN1` [Example 37], the IC50 [1] was 8.4 nM, the IC50 (Human NMT1 (HsNMT1)) was 7.9 nM and the EC50 [2] was 27 nM.
`C[C@H]1CN(c2ncc(F)c(N3CC(C(=O)NC(C)(C)c4cnc5ccccn45)C3)n2)CCN1` [Example 38] showed an IC50 [1] of 14 nM and an EC50 [2] of 150 nM.
In the case of `CN(c1ncc(F)c(N2CC(C(=O)NC(C)(C)c3cnc4ccccn34)C2)n1)C1CCNC1` (centres unmarked) [Example 40], the IC50 [1] is reported as 18 nM, the IC50 (Human NMT1 (HsNMT1)) is reported as 160 nM and the EC50 [2] is reported as 250 nM.
In the case of `CC1CN(c2ncc(F)c(N3CC(C(=O)NC(C)(C)c4cnc5ccccn45)C3)n2)C[C@@H](C)N1` (some centres unmarked) [Example 47], the IC50 [1] is reported as 12.2 nM, the IC50 (Human NMT1 (HsNMT1)) is reported as 43 nM and the EC50 [2] is reported as 140 nM.
Work on `CC1CN(c2ncc(F)c(N3CC(C(=O)NC(C)(C)c4cnc5ccccn45)C3)n2)C[C@H](C)N1` (some centres unmarked) [Example 49] yielded an IC50 [1] of 8.4 nM, an IC50 (Human NMT1 (HsNMT1)) of 14 nM and an EC50 [2] of 57 nM.
`CN1CCC(N(C)c2ncc(F)c(N3CC(C(=O)NC(C)(C)c4cnc5ccccn45)C3)n2)C1` (centres unmarked) [Example 58] showed an IC50 [1] of 13 nM, an IC50 (Human NMT1 (HsNMT1)) of 37 nM and an EC50 [2] of 410 nM.
Work on `COc1cnc(N2CCCN(C)CC2)nc1N1CC(C(=O)NC(C)(C)c2cnc3ccccn23)C1` [Example 62] yielded an IC50 [1] of 6 nM, an IC50 (Human NMT1 (HsNMT1)) of 5 nM and an EC50 [2] of 11 nM.
For `COc1cnc(N2CCN(C)CC2)nc1N1CC(C(=O)NC(C)(C)c2cnc3ccccn23)C1` [Example 63], the IC50 [1] was 71 nM and the EC50 [2] was 180 nM.
Work on `CN1CCN(c2ncc(F)c(N3CCC(C(=O)NC(C)(C)c4cnc5ccccn45)C3)n2)CC1` (centres unmarked) [Example 64] yielded an IC50 [1] of 20 nM, an IC50 (Human NMT1 (HsNMT1)) of 190 nM and an EC50 [2] of 850 nM.
Compound `C[C@@H]1CN(C)CCN1c1ncc(Cl)c(N2CC(C(=O)NC(C)(C)c3cnc4ccccn34)C2)n1` [Example 68] has an IC50 [1] of 32 nM, an IC50 (Human NMT1 (HsNMT1)) of 88 nM and an EC50 [2] of 74 nM.
`C[C@H]1CN(c2ncc(F)c(N3CC(C(=O)NC(C)(C)c4cnc5ccccn45)C3)n2)CCN1C` [Example 82, 1-{2-[(3S)-3,4-dimethylpiperazin-1-yl]-5-fluoropyrimidin-4-yl}-N-(2-{imidazo[1,2-a]pyridin-3-yl}propan-2-yl)azetidine-3-carboxamide] was tested, and the IC50 [1] was 43 nM, the IC50 (Human NMT1 (HsNMT1)) was 100 nM and the EC50 [2] was 94 nM.
`C[C@H]1CN(c2ncc(Cl)c(N3CC(C(=O)NC(C)(C)c4cnc5ccccn45)C3)n2)CCN1C` [Example 83, 1-{5-chloro-2-[(3S)-3,4-dimethylpiperazin-1-yl]pyrimidin-4-yl}-N-(2-{imidazo[1,2-a]pyridin-3-yl}propan-2-yl)azetidine-3-carboxamide] showed an IC50 [1] of 10 nM and an EC50 [2] of 150 nM.
With `C[C@@H]1CN(c2ncc(F)c(N3CCC(C(=O)NC(C)(C)c4cnc5ccccn45)C3)n2)CCN1C` (stereo partly drawn) [Example 86, 1-{2-[(3R)-3,4-dimethylpiperazin-1-yl}-5-fluoropyrimidin-4-yl}-N-(2-{imidazo[1,2-a]pyridin-3-yl}propan-2-yl)pyrrolidine-3-carboxamide] the IC50 [1] was 7 nM, the IC50 (Human NMT1 (HsNMT1)) was 39 nM and the EC50 [2] was 200 nM.
In the case of `C[C@@H]1CN(c2ncc(F)c(N3CC(C)(C(=O)NC(C)(C)c4cnc5ccccn45)C3)n2)CCN1C` [Example 87, 1-{2-[(3R)-3,4-dimethylpiperazin-1-yl]-5-fluoropyrimidin-4-yl}-N-(2-{imidazo[1,2-a]pyridin-3-yl}propan-2-yl)-3-methylazetidine-3-carboxamide], the IC50 [1] is reported as 38 nM, the IC50 (Human NMT1 (HsNMT1)) is reported as 150 nM and the EC50 [2] is reported as over 760 nM.
For `C[C@@H]1CN(c2ncc(Cl)c(N3CC(C(=O)NC(C)(C)c4cnc5ccccn45)C3)n2)C[C@@H](C)N1C` [Example 92, 1-{5-chloro-2-[(3R,5R)-3,4,5-trimethylpiperazin-1-yl]pyrimidin-4-yl}-N-(2-{imidazo[1,2-a]pyridin-3-yl}propan-2-yl)azetidine-3-carboxamide], the IC50 [1] was 41 nM, the IC50 (Human NMT1 (HsNMT1)) was 55 nM and the EC50 [2] was 260 nM.
With `C[C@@H]1CN(c2ncc(F)c(N3CC(C(=O)NC(C)(C)c4cnc5ccccn45)C3)n2)C[C@@H](C)N1C` [Example 93, 1-{5-fluoro-2-[(3R,5R)-3,4,5-trimethylpiperazin-1-yl]pyrimidin-4-yl}-N-(2-{imidazo[1,2-a]pyridin-3-yl}propan-2-yl)azetidine-3-carboxamide] the IC50 [1] was 59 nM, the IC50 (Human NMT1 (HsNMT1)) was 250 nM and the EC50 [2] was 860 nM.
For `Cc1ccc2ncc(C(C)(C)NC(=O)C3CN(c4nc(N5CCN(C)[C@H](C)C5)ncc4F)C3)n2c1` [Example 97, 1-{2-[(3R)-3,4-dimethylpiperazin-1-yl}-5-fluoropyrimidin-4-yl}-N-(2-{6-methylimidazo[1,2-a]pyridin-3-yl}propan-2-yl)azetidine-3-carboxamide], the IC50 [1] was 4.9 nM, the IC50 (Human NMT1 (HsNMT1)) was 25.7 nM and the EC50 [2] was 69 nM.
`Cc1ccc2ncc(C(C)(C)NC(=O)C3CN(c4nc(N5CCN(C)[C@H](C)C5)ncc4Cl)C3)n2c1` [Example 98, 1-{5-chloro-2-[(3R)-3,4-dimethylpiperazin-1-yl]pyrimidin-4-yl}-N-(2-{6-methylimidazo[1,2-a]pyridin-3-yl}propan-2-yl)azetidine-3-carboxamide] showed an IC50 [1] of 5.8 nM, an IC50 (Human NMT1 (HsNMT1)) of 5.4 nM and an EC50 [2] of 7 nM.
`C[C@@H]1CN(c2ncc(Cl)c(N3CC(C(=O)NC(C)(C)c4cnc5ccccn45)C3)n2)[C@@H](C)CN1C` [Example 109, 1-{5-chloro-2-[(2S,5R)-2,4,5-trimethylpiperazin-1-yl]pyrimidin-4-yl}-N-(2-{imidazo[1,2-a]pyridin-3-yl}propan-2-yl)azetidine-3-carboxamide] showed an EC50 [2] of 120 nM.
For `C[C@@H]1CN(c2ncc(Cl)c(N3CC(C(=O)NC(C)(C)c4cnc5ccccn45)C3)n2)[C@H](C)CN1C` [Example 110, 1-{5-chloro-2-[(2R,5R)-2,4,5-trimethylpiperazin-1-yl]pyrimidin-4-yl}-N-(2-{imidazo[1,2-a]pyridin-3-yl}propan-2-yl)azetidine-3-carboxamide], the EC50 [2] was 66 nM.
`C[C@@H]1CN(c2ncc(F)c(N3CC(C(=O)NC(C)(C)c4cnc5ccccn45)C3)n2)[C@@H](C)CN1C` [Example 111, 1-{5-fluoro-2-[(2S,5R)-2,4,5-trimethylpiperazin-1-yl]pyrimidin-4-yl}-N-(2-{imidazo[1,2-a]pyridin-3-yl}propan-2-yl)azetidine-3-carboxamide] was tested, and the EC50 [2] was 450 nM.
Work on `CN1CCCN(c2nc3c(c(N4CC(C(=O)NC(C)(C)c5cnc6ccccn56)C4)n2)CCC3)CC1` [Example 114, N-(2-(imidazo[1,2-a]pyridin-3-yl)propan-2-yl)-1-(2-(4-methyl-1,4-diazepan-1-yl)-6,7-dihydro-5H-cyclopenta[d]pyrimidin-4-yl)azetidine-3-carboxamide] yielded an EC50 (SU-DHL-10 cells) of 65 nM.
In the case of `Cc1nc(N2CCCN(C)CC2)nc(N2CC(C(=O)NC(C)(C)c3cnc4ccccn34)C2)c1Cl` [Example 115, 1-(5-chloro-6-methyl-2-(4-methyl-1,4-diazepan-1-yl)pyrimidin-4-yl)-N-(2-(imidazo[1,2-a]pyridin-3-yl)propan-2-yl)azetidine-3-carboxamide], the EC50 (SU-DHL-10 cells) is reported as 54 nM.
Compound `CN(C(=O)C1CN(c2nc(N3CCNCC3)ncc2Cl)C1)C(C)(C)c1cnc2ccccn12` [Example 119, 1-(5-chloro-2-(piperazin-1-yl)pyrimidin-4-yl)-N-(2-(imidazo[1,2-a]pyridin-3-yl)propan-2-yl)-N-methylazetidine-3-carboxamide] has an EC50 (SU-DHL-10 cells) of 925 nM.
With `CN(C(=O)C1CN(c2nc(N3CCCNCC3)ncc2Cl)C1)C(C)(C)c1cnc2ccccn12` [Example 120, 1-(5-chloro-2-(1,4-diazepan-1-yl)pyrimidin-4-yl)-N-(2-(Imidazo[1,2-a]pyridin-3-yl)propan-2-yl)-N-methylazetidine-3-carboxamide] the EC50 (SU-DHL-10 cells) was 545 nM.
`C[C@@H]1CN(c2ncc(Cl)c(N3CC(C(=O)N(C)C(C)(C)c4cnc5ccccn45)C3)n2)CCN1` [Example 124, (R)-1-(5-chloro-2-(3-methylpiperazin-1-yl)pyrimidin-4-yl)-N-(2-(Imidazo[1,2-a]pyridin-3-yl)propan-2-yl)-N-methylazetidine-3-carboxamide] was tested, and the EC50 (SU-DHL-10 cells) was 448 nM.
